“Also recorded” adds a separate entry of the source.
Experiments:
[1] = system: OVX-induced-osteoporosis mice; test: OVX-induced osteoporosis mouse model, BMD of the thighbone; format: in vivo; conditions: 16 weeks; for BMD compared to the untreated model group: H-9 90, 30 and 10 mg/kg, raloxifene 5 mg/kg, intragastric
Experimental: To evaluate the anti-osteoporosis therapeutic potential of compound H-9, an ovariectomized (OVX)-induced osteoporosis mouse model was established and employed. The study included six experimental groups: a blank control group, an untreated model group, three H-9 treatment groups (doses of 90 mg/kg, 30 mg/kg, and 10 mg/kg), and a positive control group treated with raloxifene (5 mg/kg), with 10 mice in each group.
The mice were randomly divided into 2 groups: a blank control group (n = 10) and a model group (n = 50). After a 7-day acclimation period, the model group mice received a bilateral ovariectomy. Subsequently, the model group was further divided into 5 subgroups (n = 10): an untreated model group, three test groups, and a raloxifene group. Ten days after surgery, the three test groups were administered compound H-9 via intragastric administration at doses of 90 mg/kg, 30 mg/kg, and 10 mg/kg, respectively. Raloxifene was given to the positive control group at a dose of 5 mg/kg. All drugs were administered for 16 weeks, with a 1-day break following every 6 consecutive days of administration. The blank control and untreated model groups received an equivalent volume of saline. At the end of the administration period, the mice were anesthetized with sodium pentobarbital, and the BMD of the thighbone was measured using an OSTEOCORE 3 Bone Density Meter (Thule, Marseille, France).

[2] = system: RANKL-induced RAW264.7 cells; test: In vitro anti-bone resorption assay: CTX-I released into culture medium (ELISA), cells on bovine femur slices; format: cell-based
Description: (§1) Type I collagen, the predominant structural protein in bone, constitutes approximately 90% of the bone matrix protein [22]. During bone renewal, type I collagen is degraded, releasing short peptide fragments such as the C-terminal peptide of type I collagen (CTX-I) into the bloodstream. The concentration of CTX-I in the patient’s blood serves as a crucial biomarker for evaluating the degree of osteoporosis. In vitro, bone resorption can be assessed by measuring the concentration of CTX-I using a model in which osteoclasts are cultured on bone slices. In this experiment, the in vitro anti-bone resorption activities of the test compounds were evaluated in RANKL-induced RAW264.7 cells. This evaluation was based on the concentration of CTX-I released into the cell culture medium due to bone degradation, as well as the area of bone resorption pits formed on bone slices.
(§2) RAW264.7 cells, obtained from the cell bank of the Chinese Academy of Medical Sciences, were seeded into 96-well plates at a density of 1 × 10^5 cells per well with bovine femur slices. To induce cell differentiation, 50 ng mL^−1 of RANKL was added to the RAW264.7 cells. The cells were cultured for 5 days at 37 °C under 5% CO2 with the test compounds at a concentration of 1 µM. The culture supernatant was collected to measure the CTX-I concentration using ELISA. The bone slices were fixed with 2.5% glutaraldehyde for 7 min, then washed 3 times with 0.25 mol/L ammonium hydroxide, dehydrated using a series of ethanol solutions (40%, 75%, 80%, 95%, and anhydrous ethanol), and dried naturally. After staining with 1% toluidine blue solution at room temperature for 3–4 min, the bone slices were rinsed with distilled water and analyzed using an optical microscope. Bone resorption areas were calculated using image analysis software (iBright CL1500, Redmond, WA, USA).

[3] = system: RANKL-induced RAW264.7 cells; test: In vitro anti-bone resorption assay: area of bone resorption pits on bone slices (toluidine blue); format: cell-based; conditions: compound 1 µM, 5 days, compared with MIV-711 / model group
Description: as §1, §2

Recombinant human Cat K = target: T1, Recombinant human Cat K (Homo sapiens, UniProt P43235); test: In vitro enzymatic assay of Cat K inhibition (Z-Phe-Arg-AMC fluorescence); format: biochemical; conditions: pH 6.0, substrate Z-Phe-Arg-AMC, read-out: Cat K IC50 (µM) ± SD
T1 sequence (P43235 115-329): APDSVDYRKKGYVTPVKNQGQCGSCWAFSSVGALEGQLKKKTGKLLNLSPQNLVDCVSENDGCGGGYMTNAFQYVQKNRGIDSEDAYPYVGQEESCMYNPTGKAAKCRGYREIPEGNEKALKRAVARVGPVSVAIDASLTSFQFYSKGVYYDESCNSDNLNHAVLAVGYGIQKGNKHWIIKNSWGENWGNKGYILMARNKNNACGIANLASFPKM
Experimental: Compounds were tested at eight concentrations (100–0.001 µM). Recombinant human Cat K (5.5 ng/mL) in reaction buffer (50 µL) containing sodium acetate (50 mM), EDTA (2.5 mM), and DTT (1 mM) was added to a 96-well plate containing the test compounds at pH 6.0. The plate was incubated at 37 °C for 15 min, and the fluorescence (F1) was measured at 355 nm excitation and 460 nm emission using a microplate reader (Wallac 1420 Victor2, Norwalk, CA, USA). Subsequently, Z-Phe-Arg-AMC (20 µL, 10 µM) was added, and the plate was incubated at 37 °C for 1 h. Fluorescence (F2) was measured again at 355 nm excitation and 460 nm emission. The inhibition rate was calculated using the formula: inhibition (%) = [control (F2 − F1) − sample (F2–F1)]/[control (F2 − F1) − blank (F2 − F1)] × 100%. IC50 values were calculated using the SPSS 17.0 software.

mice = test: Acute toxicity testing, oral; format: in vivo; conditions: 300 mg/kg/day for 7 days
Experimental: (§3) Initially, acute toxicity testing was carried out to establish appropriate dosages. Compound H-9 was administered orally at a dose of 300 mg/kg/day for 7 days.

[4] = Acute toxicity testing, oral; format: in vivo, mice; conditions: mouse, in vivo, 300 mg/kg/day for 7 days, mice
Experimental: as §3

[5] = system: Cat K levels in RAW264.7 cells; test: Western blotting assay of Cat K expression; format: cell-based; conditions: H-9 at 0, 1 and 5 µM for five days, RANKL-treated RAW264.7 cells
Experimental: To further verify the anti-bone resorption mechanism of the target compounds, a western blotting assay was carried out to assess the effect of compound H-9 on the expression of Cat K. […] RAW264.7 cells were treated with compound H-9 at concentrations of 0, 1, and 5 µM for five days, followed by cell lysis. Proteins were extracted and analyzed for Cat K levels. […] These western blotting results, combined with enzyme inhibitory activities and molecular docking analyses, confirm that the anti-bone resorption activity of compound H-9 is mediated through the inhibition of Cat K activity.
RAW264.7 cells were seeded into 12-well plates at a density of 1 × 10^5 cells per well, and 50 ng mL^−1 of RANKL was added to induce cell differentiation. The cells were cultured at 37 °C under 5% CO2 and treated with compound H-9 (0, 1, and 5 µM) for 5 days. The cells were then harvested, lysed, and centrifuged at 12,000× g for 10 min. The supernatants were collected and mixed with loading buffer, then heated to 100 °C. Total protein concentrations were determined using a Bio-Rad protein assay ([…], Hercules, CA, USA). The samples were subjected to SDS-PAGE and transferred to a PVDF membrane. The membrane was blocked with 5% non-fat milk, and then, incubated overnight at 4 °C with primary antibody against Cat K and GAPDH. […]

Row | SMILES | BMD compared to the untreated model group [1] | Efficacy on BMD compared to the positive control ([1]; H-9 at 90 mg/kg vs raloxifene 5 mg/kg) | CTX-I concentration in the cell culture medium ([2]; compound 1 µM, 5 days, ELISA) [nM] | CTX-I concentration compared to the model group (in words) ([2]; compound 1 µM, 5 days, vs untreated model group) | Anti-bone resorption effects in vitro compared to MIV-711 (summary statement) ([2]; in vitro, RAW264.7 cells) | Anti-bone resorption activity by area of bone resorption pits (in words) [3] | IC50 (Recombinant human Cat K) [µM] | Mouse deaths (mice) | LD50 at 7 days [4] [mg/kg] | Effect on Cat K levels (western blot) [5]
1 | COc1ccc(S(=O)(=O)N2CCC[C@@H](C(=O)NCc3ccc(Cl)cc3)C2)cc1 [Compound H-9, (R)-N-(4-chlorobenzyl)-1-((4-methoxyphenyl)sulfonyl)piperidine-3-carboxamide] | increased the bone mineral density; also recorded: significant increases in BMD | comparable to that of the positive control | 20.46 ± 3.67 | reduced CTX-I concentration | comparable to those of MIV-711; also recorded: comparable to that of MIV-711 | comparable to that of MIV-711 | 0.08 ± 0.03 | No mouse deaths | > 300 | dose-dependent decrease in Cat K levels; also recorded: effectively downregulated cathepsin K expression; also recorded: decreased Cat K levels
2 | O=C(c1ccc(OCCN2CCCCC2)cc1)c1c(-c2ccc(O)cc2)sc2cc(O)ccc12 [raloxifene, reference compound] | significant increases in BMD |  |  |  |  |  |  |  |  | 

Reference: article PMC11396514, “Synthesis and Biological Evaluation of Novel Piperidine-3-Carboxamide Derivatives as Anti-Osteoporosis Agents Targeting Cathepsin K” (Molecules, 2024)
